Assay results from patent US12195427B2, “MASP-2 inhibitors and methods of use” (priority 2018, dated 2025).
Counter-ions that a name gives are not always drawn. Blank lines part the entries; values can stand above or below the compound they belong to.

Molecular target: MASP-2 CCP2-SP (Homo sapiens (Human), UniProt O00187)
Assay: MASP-2 co-crystallization, X-ray crystallography and structure analysis (H-bonds, van der Waals contacts);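 on Ligand-pharmacophore element distance, pharmacophore element C2: distance from averaged pharmacophore element to bound ligand; missing value means element absent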;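 on Ligand-pharmacophore element distance, pharmacophore element C3: distance from averaged pharmacophore element to bound ligand; missing value means element absent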;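 on Ligand-pharmacophore element distance, pharmacophore element C4: distance from averaged pharmacophore element to bound ligand; missing value means element absent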;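 on Ligand-pharmacophore element distance, pharmacophore element C5: distance from averaged pharmacophore element to bound ligand; missing value means element absent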
Design: van der Waals contact distance, MASP-2 HIS 483 atom CD2 / van der Waals contact distance, MASP-2 HIS 483 atom NE2 / van der Waals contact distance, SER 654 C to compound atom / van der Waals contact distance, SER 654 O to compound atom / van der Waals contact distance, TRP 655 C to compound atom / van der Waals contact distance, MASP-2 GLY 528 atom CA / van der Waals contact distance TRP 655 atom CZ3 / van der Waals contact distance TRP 655 atom N / van der Waals contact distance TRP 655 atom CE3 / van der Waals contact distance GLY 656 atom C / van der Waals contact distance GLY 656 atom CA / van der Waals contact distance GLY 656 atom O / van der Waals contact distance, MASP-2 TYR 607 atom CD1 / van der Waals contact distance, MASP-2 PRO 606 atom O / d(C3,CA1) / d(CA1,N1)2 / d(H4,O1) / d(H4,O2) / d(O1,O2) / d(CA1,O2) / d(CA6,O1) / d(CA6,O2) / d(CA1,C5) / d(O2,H3) / d(N2,C2) / d(CA5,N2) / d(N2,C4) / d(N2,C6) / d(N2,CA3) / d(N2,O3) / d(O4,H2): unit not given beside the values
Conditions: for H-bond distance to MASP-2 GLY 656 atom O: GLY 656 O; for van der Waals contact distance, TRP 655 C to compound atom / van der Waals contact distance, TRP 655 CA to compound atom: Table A2-12; for van der Waals contact distance GLY 656 atom C: MASP-2 GLY 656 C; for van der Waals contact distance TRP 655 atom N: MASP-2 TRP 655 N; for H-bond distance to MASP-2 ASP 627 atom OD1: ASP 627 OD1; for H-bond distance to MASP-2 GLY 656 atom N: GLY 656 N; for H-bond distance to MASP-2 SER 628 atom O: SER 628 O; for H-bond distance to MASP-2 SER 657 atom O: SER 657 O; for van der Waals contact distance TRP 655 atom O: MASP-2 TRP 655 O; for van der Waals contact distance SER 657 atom C: MASP-2 SER 657 C, columns c12-c13 (inferred); for Pharmacophore protein distance to MET_658 (first MET_658 column): 6th residue column; for Pharmacophore protein distance to MET_658 (second MET_658 column): 9th residue column; for H-bond distance to MASP-2 ASP 627 atom OD2: ASP 627 OD2
How it was run: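 Contacts and H-bonds come from partially refined soaked-crystal structures of recombinant human CCP2-SP made in E. coli, solved by molecular replacement against 1Q3X fragments. Where several ligand poses appeared, only one was analysed; listed nonbonded contacts may include possible H-bond pairings.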

[1] = Table A5-1 pharmacophore: distance between elements, S2/S1 region
[2] = Table A5-2 pharmacophore distance, S3/S4 region
[3] = Table A7-1, between pharmacophore elements of the bound compound
[4] = Table A8-6, nearest protein atom in cell to the left

Sequence of MASP-2 CCP2-SP (O00187 445-686): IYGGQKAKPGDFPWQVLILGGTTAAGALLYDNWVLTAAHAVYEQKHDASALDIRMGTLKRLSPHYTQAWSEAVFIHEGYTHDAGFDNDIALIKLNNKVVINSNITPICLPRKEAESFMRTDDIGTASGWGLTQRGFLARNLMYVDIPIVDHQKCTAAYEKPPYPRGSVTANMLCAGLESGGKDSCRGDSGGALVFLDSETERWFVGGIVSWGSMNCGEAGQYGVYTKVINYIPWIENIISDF
Sequence of MASP-2 CCP2-SP (O00187 364-432 partner): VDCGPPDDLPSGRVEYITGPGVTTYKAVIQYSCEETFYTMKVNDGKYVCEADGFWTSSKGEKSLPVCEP

Structure (SMILES): C[C@H](NC(=O)[C@H](N)CCc1ccccc1)C(=O)NCc1cc(Cl)ccc1O [compound 1031, (R)-2-Amino-N—((S)-1-((5-chloro-2-hydroxybenzyl)amino)-1-oxopropan-2-yl)-4-phenylbutanamide Hydrochloride]
H-bond distance to MASP-2 ARG 630 atom NH1 (second bond) (Table A1 (H-Bonds), ARG 630 NH1): 2.83
H-bond distance to MASP-2 GLY 656 atom O (Table A1 (H-Bonds)): 2.67
van der Waals contact distance, MASP-2 HIS 483 atom CD2 (Table A2-1): 3.57
van der Waals contact distance, MASP-2 HIS 483 atom CE1 (Table A2-1): 3.62
van der Waals contact distance, MASP-2 HIS 483 atom NE2 (Table A2-1): 3.17
van der Waals contact distance, MASP-2 PHE 529 atom CE2 (Table A2-3): 3.75
van der Waals contact distance, MASP-2 TYR 607 atom CD1 (Table A2-4): 3.85
van der Waals contact distance, MASP-2 amino acid atom to compound atom (Table A2-9 second part, ARG 630, AA atoms N, NE, NH1, Hydrochloride): 3.34
van der Waals contact distance, VAL 653 CG1 to compound atom (Table A2-11): 3.58
van der Waals contact distance, SER 654 C to compound atom (Table A2-11, Hydrochloride): 3.56
van der Waals contact distance, TRP 655 C to compound atom (Hydrochloride): 3.26
van der Waals contact distance, TRP 655 CA to compound atom (Hydrochloride): 3.64
van der Waals contact distance GLY 656 atom C (Table A2-13): 3.61
van der Waals contact distance TRP 655 atom CE3 (Table A2-13, MASP-2 TRP 655 CE3, compound atom in line below): 3.49
van der Waals contact distance TRP 655 atom N (Table A2-13): 3.28

Structure (SMILES): C[C@H](NC(=O)[C@H](N)CCCc1ccccc1)C(=O)NCc1ccc(C(=N)N)cc1 [compound 1042]
H-bond distance to MASP-2 ASP 627 atom OD1 (Table A1 (H-Bonds)): 3.32
H-bond distance to MASP-2 GLY 656 atom O (Table A1 (H-Bonds)): 2.34
H-bond distance to MASP-2 SER 628 atom O (Table A1 (H-Bonds)): 2.74
H-bond distance to MASP-2 SER 657 atom O (Table A1 (H-Bonds)): 2.65
van der Waals contact distance, MASP-2 HIS 483 atom NE2 (Table A2-1): 3.56
van der Waals contact distance, MASP-2 PHE 529 atom CZ (Table A2-3): 3.57
van der Waals contact distance, SER 654 C to compound atom (Table A2-11): 3.36
van der Waals contact distance, TRP 655 C to compound atom: 3.57

Continued, values first:

H-bond distance to MASP-2 ASP 627 atom OD1 (Table A1 (H-Bonds)): 2.9
H-bond distance to MASP-2 GLN 665 atom OE1 (Table A1 (H-Bonds), GLN 665 OE1): 3.26
H-bond distance to MASP-2 GLN 665 atom OE1 (second bond) (Table A1 (H-Bonds), GLN 665 OE1, second column): 2.8
H-bond distance to MASP-2 GLY 656 atom N (Table A1 (H-Bonds)): 2.91
H-bond distance to MASP-2 SER 628 atom O (Table A1 (H-Bonds)): 2.91
H-bond distance to MASP-2 SER 654 atom O (Table A1 (H-Bonds), SER 654 O): 2.99
H-bond distance to MASP-2 SER 657 atom O (Table A1 (H-Bonds)): 2.75
van der Waals contact distance, MASP-2 PRO 606 atom CG (Table A2-4): 3.71
van der Waals contact distance, MASP-2 amino acid atom to compound atom (Table A2-10, ARG 630 NH2, GLY 631, ASP 632, SER 633): 3.11
van der Waals contact distance, SER 654 C to compound atom (Table A2-11): 3.83
van der Waals contact distance, TRP 655 CA to compound atom: 3.42
van der Waals contact distance TRP 655 atom O (Table A2-13): 3.77
van der Waals contact distance SER 657 atom C (Table A2-14): 3.51
Ligand-pharmacophore element distance, pharmacophore element C2 (Table A4-1): 2.4
Ligand-pharmacophore element distance, pharmacophore element C3 (Table A4-1): 0
Ligand-pharmacophore element distance, pharmacophore element C4 (Table A4-1): 0
Ligand-pharmacophore element distance, pharmacophore element C5 (Table A4-1): 0
Ligand-pharmacophore element distance, pharmacophore element C6 (Table A4-1): 0
Ligand-pharmacophore element distance, pharmacophore element C7 (Table A4-1): 0
Ligand-pharmacophore element distance, pharmacophore element CA1 (Table A4-1): 0.28
Ligand-pharmacophore element distance, pharmacophore element CA2 (Table A4-1): 0
Ligand-pharmacophore element distance, pharmacophore element CA3 (Table A4-1): 0
Ligand-pharmacophore element distance, pharmacophore element CA4 (Table A4-1): 0
Ligand-pharmacophore element distance, pharmacophore element CA5 (Table A4-1, element CA5): 0.98
Ligand-pharmacophore element distance, pharmacophore element CA6 (Table A4-1): 0
Ligand-pharmacophore element distance, pharmacophore element H1 (Table A4-2, element H1): 0
Ligand-pharmacophore element distance, pharmacophore element H2 (Table A4-2, element H2): 0
Ligand-pharmacophore element distance, pharmacophore element H3 (Table A4-2, element H3): 1.08
Ligand-pharmacophore element distance, pharmacophore element H4 (Table A4-2, element H4): 3.56
Ligand-pharmacophore element distance, pharmacophore element N1 (Table A4-2, element N1): 1.87
Ligand-pharmacophore element distance, pharmacophore element N2 (Table A4-2, element N2): 0.86
Ligand-pharmacophore element distance, pharmacophore element O1 (Table A4-2, element O1): 0.39
Ligand-pharmacophore element distance, pharmacophore element O2 (Table A4-2, element O2): 0.49
Ligand-pharmacophore element distance, pharmacophore element O3 (Table A4-2, element O3): 0
Ligand-pharmacophore element distance, pharmacophore element O4 (Table A4-2, element O4): 0
d(CA1,N1) [1]: 3.64
d(CA1,O1) [1]: 4.35
d(CA1,O2) [1]: 4.19
d(H4,O1) [1]: 4.86
d(H4,O2) [1]: 4.31
d(O1,O2) [1]: 3.48
d(CA5,N2) [2]: 3.72
d(N2,C2) [2]: 2.26
d(O2,H3) [2]: 2.74
d(O2,N2) [2]: 3.03
a(CA1, O1, O2) (Table A6-1 pharmacophore angle): 111.64
a(O1, O2, H4) (Table A6-1 pharmacophore angle): 135.95
A(N1, CA1, O1) a) (Table A6-1 pharmacophore angle, all compounds with protonatable center N1 except Methyl-amino-pyridine): 160.69
a(O1, O2, H3) (Table A6-2 pharmacophore angle): 135.88
a(O1, O2, N2) (Table A6-2 pharmacophore angle): 137.69
a(O2, N2, C2) (Table A6-2 pharmacophore angle): 100.68
Pharmacophore torsion angle a(H4, O1, O2, H3) [3]: 93.33
Pharmacophore torsion angle a(H4, O1, O2, N2) [3]: 142.83
Pharmacophore torsion angle a(N1, CA1, O2, H4) [3]: −127.27
Pharmacophore torsion angle a(O1, H4, O2, CA1) [3]: −61.32
Pharmacophore torsion angle a(O1, O2, N2, C2) [3]: 68.39
Pharmacophore torsion angle a(O1, O2, N2, CA5) (Table A7-2, between pharmacophore elements of the bound compound): 137.68
Pharmacophore protein distance to MET_658 (first MET_658 column) [4]: 2.86
Pharmacophore protein distance to MET_658 (second MET_658 column) [4]: 3.46
Pharmacophore protein distance to GLY_528 [4]: 3.79
Pharmacophore protein distance to PHE_529 [4]: 3.09
Pharmacophore protein distance to PRO_608 [4]: 2.97
Pharmacophore protein distance to SER_611 [4]: 3.32
Pharmacophore protein distance to TRP_655 (Table A8-6, pharmacophore elements C6, CA3, O3, H1, nearest protein atom in cell to the left): 3.27
Structure (SMILES): N=C(N)c1ccc(CNC(=O)[C@@H]2CCN2C(=O)[C@H]2Cc3ccccc3CN2)cc1 [compound 1034]

H-bond distance to MASP-2 ASP 627 atom OD2 (Table A1 (H-Bonds)): 2.96
H-bond distance to MASP-2 GLY 656 atom N (Table A1 (H-Bonds)): 3.22
H-bond distance to MASP-2 SER 628 atom O (Table A1 (H-Bonds)): 2.9
H-bond distance to MASP-2 SER 657 atom O (Table A1 (H-Bonds)): 2.93
van der Waals contact distance, MASP-2 HIS 483 atom CD2 (Table A2-1): 3.81
van der Waals contact distance, MASP-2 PHE 529 atom CE2 (Table A2-3): 3.72
van der Waals contact distance TRP 655 atom N (Table A2-13): 3.58
van der Waals contact distance GLY 656 atom O (Table A2-14, MASP-2 GLY 656 O): 3.55
van der Waals contact distance SER 657 atom C (Table A2-14): 3.57
Structure (SMILES): C[C@H](NC(=O)[C@H]1C[C@H](c2ccccc2)CN1)C(=O)NCc1ccc(C(=N)N)cc1 [compound 1036]

H-bond distance to MASP-2 ASP 627 atom OD2 (Table A1 (H-Bonds)): 2.91
H-bond distance to MASP-2 GLY 656 atom N (Table A1 (H-Bonds)): 3.35
H-bond distance to MASP-2 SER 657 atom O (Table A1 (H-Bonds)): 2.85
van der Waals contact distance, MASP-2 PHE 529 atom CE1 (Table A2-3): 3.27
van der Waals contact distance, MASP-2 PHE 529 atom CE2 (Table A2-3): 3.73
van der Waals contact distance, MASP-2 PRO 606 atom C (Table A2-4): 3.89
van der Waals contact distance, MASP-2 PRO 606 atom O (Table A2-4): 3.73
van der Waals contact distance GLY 656 atom C (Table A2-13): 3.7
van der Waals contact distance TRP 655 atom O (Table A2-13): 3.25
van der Waals contact distance GLY 656 atom N (Table A2-14, MASP-2 GLY 656 N): 3.86
van der Waals contact distance SER 657 atom C (Table A2-14): 3.73
Ligand-pharmacophore element distance, pharmacophore element C2 (Table A4-1): 0
Ligand-pharmacophore element distance, pharmacophore element C3 (Table A4-1): 0
Ligand-pharmacophore element distance, pharmacophore element C4 (Table A4-1): 0
Ligand-pharmacophore element distance, pharmacophore element C5 (Table A4-1): 0
Ligand-pharmacophore element distance, pharmacophore element C6 (Table A4-1): 0
Ligand-pharmacophore element distance, pharmacophore element C7 (Table A4-1): 0
Ligand-pharmacophore element distance, pharmacophore element CA1 (Table A4-1): 0.27
Ligand-pharmacophore element distance, pharmacophore element CA2 (Table A4-1): 0
Ligand-pharmacophore element distance, pharmacophore element CA3 (Table A4-1): 0
Ligand-pharmacophore element distance, pharmacophore element CA4 (Table A4-1): 0
Ligand-pharmacophore element distance, pharmacophore element CA6 (Table A4-1): 0
d(O2,H3) [2]: 3.99
Pharmacophore torsion angle a(H4, O1, O2, H3) [3]: 57.29
Pharmacophore torsion angle a(N1, CA1, O2, H4) [3]: −92.49
Pharmacophore protein distance to MET_658 (first MET_658 column) [4]: 2.38
Pharmacophore protein distance to MET_658 (second MET_658 column) [4]: 3.03
Pharmacophore protein distance to SER_611 [4]: 2.19
Structure (SMILES): C[C@H](NC(=O)[C@H]1C[C@@H](c2ccccc2)CN1)C(=O)NCc1ccc(C(=N)N)cc1 [compound 1037]
